Experimental data reported in patent US5378730A, “Permeation enhancer comprising ethanol and monoglycerides” (priority 1992, dated 1995).

Assay type: in vitro ADME, human
Description: The optimum range of water in a permeation-enhancing mixture when used with the drug sodium piroxicam, where the ratio of Myverol 99K monoglyceride to ethanol is 40 to 55.4 in the mixture, was determined as follows. Various ethanol/Myverol 18-99K/water donor compositions, in the weight ratios listed in Table C, were tested with sodium piroxicam to measure their effect upon the drug flux across human cadaver epidermis at 35° C. The ratio of ethanol to monoglyceride was initially 55.4 to 40, to which varying amounts of water were added. All donor compositions were saturated with the drug. Test data were obtained using a 1.13 cm^2 wet-wet horizontal flux cell with 0.2 ml donor solution and 20 ml receptor solutions (pH 7.4 phosphate buffer, 0.05 M).

## CN1C(C(=O)Nc2ccccn2)=C(O)c2ccccc2S1(=O)=O [sodium piroxicam]
  optimum range of water content in the permeation-enhancing mixture: 23-33 wt %
